Data: patent US20110183980A1, “O-BENZYL NICOTINAMIDE ANALOGS AS MGLUR5 POSITIVE ALLOSTERIC MODULATORS” (priority 2009, published 2011)

target: T1, rat mGluR5 (Rattus norvegicus, UniProt P31424); experiment: Potentiation of glutamate response, Ca2+ fluorescence (FDSS) in HEK cells transfected with rat mGluR5; format: cell-based; conditions: Table 1; potentiation of mGluR5 response to glutamate; read-out: EC50
T1 construct: expressed in transfected cells; host or cells: human embryonic kidney (HEK) cells
T1 sequence (P31424 21-1203): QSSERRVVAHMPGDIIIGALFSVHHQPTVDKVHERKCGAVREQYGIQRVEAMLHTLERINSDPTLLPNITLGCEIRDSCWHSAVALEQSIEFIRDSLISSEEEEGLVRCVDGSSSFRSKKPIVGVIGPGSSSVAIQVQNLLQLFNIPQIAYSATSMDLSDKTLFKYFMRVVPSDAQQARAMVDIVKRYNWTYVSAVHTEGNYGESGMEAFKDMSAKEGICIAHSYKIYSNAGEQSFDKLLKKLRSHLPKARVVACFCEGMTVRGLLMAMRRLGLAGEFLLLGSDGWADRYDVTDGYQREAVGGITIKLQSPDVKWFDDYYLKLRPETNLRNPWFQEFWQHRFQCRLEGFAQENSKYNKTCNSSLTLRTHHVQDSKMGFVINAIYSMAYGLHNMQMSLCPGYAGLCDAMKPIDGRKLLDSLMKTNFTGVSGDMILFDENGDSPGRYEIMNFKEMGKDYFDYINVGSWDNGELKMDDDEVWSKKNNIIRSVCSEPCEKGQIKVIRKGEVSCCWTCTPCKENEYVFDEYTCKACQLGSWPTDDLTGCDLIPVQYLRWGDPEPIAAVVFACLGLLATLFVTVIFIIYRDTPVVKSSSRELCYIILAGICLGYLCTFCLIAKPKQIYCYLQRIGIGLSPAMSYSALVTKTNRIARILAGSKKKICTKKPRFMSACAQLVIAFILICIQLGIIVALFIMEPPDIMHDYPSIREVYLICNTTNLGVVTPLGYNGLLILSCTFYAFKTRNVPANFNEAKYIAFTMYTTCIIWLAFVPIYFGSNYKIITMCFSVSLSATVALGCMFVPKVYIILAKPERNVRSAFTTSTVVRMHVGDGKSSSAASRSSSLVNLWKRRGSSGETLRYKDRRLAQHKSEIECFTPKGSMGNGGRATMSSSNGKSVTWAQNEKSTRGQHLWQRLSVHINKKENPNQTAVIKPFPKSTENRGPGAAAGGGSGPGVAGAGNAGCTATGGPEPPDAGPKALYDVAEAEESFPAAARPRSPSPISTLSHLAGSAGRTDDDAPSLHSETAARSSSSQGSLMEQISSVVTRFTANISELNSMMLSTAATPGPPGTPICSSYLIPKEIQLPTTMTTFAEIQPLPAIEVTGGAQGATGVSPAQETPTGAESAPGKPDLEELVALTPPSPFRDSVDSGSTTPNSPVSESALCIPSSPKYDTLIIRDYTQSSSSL
Protocol: Human embryonic kidney (HEK) cells transfected with rat mGluR5 were plated in clear bottom assay plates for assay in a Functional Drug Screening System (FDSS). The cells were loaded with a Ca^2+-sensitive fluorescent dye (e.g., Fluo-4), and the plates were washed and placed in the FDSS instrument. After establishment of a fluorescence baseline for twelve seconds, the compounds of the present invention were added to the cells, and the response in cells was measured. Five minutes later, an mGluR5 agonist (e.g., glutamate, 3,5-dihydroxyphenylglycine, or quisqualate) was added to the cells, and the response of the cells was measured. Potentiation of the agonist response of mGluR5 by the compounds in the present invention was observed as an increase in response to non-maximal concentrations of agonist (here, glutamate) in the presence of compound compared to the response to agonist in the absence of compound.
The above described assay operated in two modes. In the first mode, a range of concentrations of the present compounds were added to cells, followed by a single fixed concentration of agonist. If a compound acted as a potentiator, an EC50 value for potentiation and a maximum extent of potentiation by the compound at this concentration of agonist was determined by non-linear curve fitting. In the second mode, several fixed concentrations of the present compounds were added to various wells on a plate, followed by a range of concentrations of agonist for each concentration of present compound; the EC50 values for the agonist at each concentration of compound were determined by non-linear curve fitting. A decrease in the EC50 value of the agonist with increasing concentrations of the present compounds (a leftward shift of the agonist concentration-response curve) is an indication of the degree of mGluR5 potentiation at a given concentration of the present compound. An increase in the EC50 value of the agonist with increasing concentrations of the present compounds (a rightward shift of the agonist concentration-response curve) is an indication of the degree of mGluR5 antagonism at a given concentration of the present compound. The second mode also indicates whether the present compounds also affect the maximum response to mGluR5 to agonists.

EC50 [µM] | SMILES
3.4 | O=C(NCc1ccccn1)c1ccc(OCc2ccccc2)nc1 [Example 1.2a.12]
1.5 | CCCCOc1ccc(C(=O)N[C@H](C)C2CCCCC2)cn1 [Example 1.2j.6]
0.34 | O=C(Nc1ccc(F)cc1)c1ccc(OCc2ccccc2)nc1 [Example 1.2a.17]
0.57 | O=C(Nc1ccc(Cl)cc1F)c1ccc(OCc2cccc(F)c2)nc1 [Example 1.2c.12]
0.12 | Cc1cccc(COc2ccc(C(=O)NC3CCC3)cn2)c1 [Example 1.2g.2]
0.42 | CC(C)(C)CCNC(=O)c1ccc(OCc2ccncc2)nc1 [Example 2.3c.2]
0.4 | Cc1nc(OCc2ccccc2)ccc1C(=O)NCCC(C)(C)C [Example 1.2b.3]
0.085 | CC(C)(C)CCNC(=O)c1ccc(OCc2cccc(F)c2)nc1 [Example 1.2c.3]
1.7 | O=C(c1ccc(OCc2cccc(F)c2)nc1)N1CCOCC1 [Example 1.2c.7]
0.14 | O=C(Nc1ccc(F)cc1F)c1ccc(OCc2ccccc2)nc1 [Example 1.2a.5]
0.23 | O=C(NCC1CCCCC1)c1ccc(OCc2cccc(F)c2)nc1 [Example 1.2c.16]
0.41 | O=C(Nc1ccccn1)c1ccc(OCc2ccccc2)nc1 [Example 1.2a.4]
≥ 10 | O=C(Nc1ccccn1)c1ccc(OCc2ccncc2)nc1 [Example 1.2i.2]
0.3 | O=C(Nc1ccccn1)c1ccc(OCc2ccccc2F)nc1 [Example 1.2f.1]
0.27 | O=C(NC1CCC1)c1ccc(OCc2ccccc2F)nc1 [Example 1.2f.2]
1.1 | O=C(Nc1ccncn1)c1ccc(OCc2ccccc2)nc1 [Example 1.2a.13]
0.87 | Cc1nc(OCc2cccc(F)c2)ccc1C(=O)N[C@H](C)C1CCCCC1 [Example 1.2m.2]
0.65 | CCCCOc1ccc(C(=O)Nc2ccccc2)cn1 [Example 1.2j.5]
1.2 | O=C(NC1CCC1)c1ccc(OCc2ccc(F)cc2)nc1 [Example 2.3b.2]

EC50 [µM] | SMILES
1 | CC(C)NC(=O)c1ccc(OCc2cccc(F)c2)nc1 [Example 1.2c.4]
1.2 | O=C(NC1CCCCC1)c1ccc(OCc2ccncc2)nc1 [Example 1.2i.3]
0.04 | C[C@@H](NC(=O)c1ccc(OCc2ccccc2)nc1)C1CCCCC1 [Example 1.2a.19]
1.6 | Cc1nc(OCc2ccccc2)ccc1C(=O)NCC1CC1 [Example 1.2b.2]
0.53 | O=C(Nc1cccc(F)c1)c1ccc(OCc2ccccc2)nc1 [Example 1.2a.16]
0.095 | N#Cc1cccc(COc2ccc(C(=O)NC3CCCCC3)cn2)c1 [Example 2.3a.7]
3.1 | O=C(NC1CCCCC1)c1ccc(OCc2nccs2)nc1 [Example 2.3a.9]
3.7 | O=C(c1ccc(OCc2ccccc2)nc1)N1CCC1 [Example 1.2a.10]
0.21 | O=C(Nc1ccccc1F)c1ccc(OCc2cccc(F)c2)nc1 [Example 1.2c.9]
2.7 | O=C(NCc1ccccn1)c1ccc(OCc2cccc(F)c2)nc1 [Example 1.2c.8]
3.9 | O=C(NC1CCOCC1)c1ccc(OCc2ccccc2)nc1 [Example 1.2a.23]
0.12 | O=C(NC1CCC1)c1ccc(OCc2cccc(F)c2)nc1 [Example 1.2c.19]
0.17 | C[C@@H](NC(=O)c1ccc(OCc2ccccc2)nc1)C1CC1 [Example 1.2a.22]
0.28 | O=C(Nc1ccc(F)cn1)c1ccc(OCc2ccccc2)nc1 [Example 1.2a.11]
0.81 | O=C(Nc1ccc(F)cc1F)c1ccc(OCc2ccncc2)nc1 [Example 1.2i.4]
0.346 | O=C(Nc1ccc(Cl)cn1)c1ccc(OCc2cccc(F)c2)nc1 [Example 1.2c.13]
0.31 | O=C(Nc1ccccc1F)c1ccc(OCc2ccccc2)nc1 [Example 1.2a.15]
0.8 | Cc1nc(OCc2ccncc2)ccc1C(=O)N[C@H](C)C1CCCCC1 [Example 1.2n.2]

same assay, conditions: Table 2; potentiation of mGluR5 response to glutamate; read-out: EC50

EC50 [µM] | SMILES
1.2 | C[C@@H](NC(=O)c1cnc(OCc2cccc(F)c2)cc1C(F)(F)F)C(C)(C)C
0.12 | COc1cccc(COc2ccc(C(=O)N[C@H](C)C(C)(C)C)cn2)c1
3.9 | CC(C)(C)CCNC(=O)c1cnc(OCc2ccncc2)c(Br)c1
0.37 | C[C@@H](NC(=O)c1ccc(OCc2cccc(F)c2)nc1Cl)C(C)(C)C
0.61 | C[C@H](NC(=O)c1ccc(OCc2cccc(F)c2)nc1)C(C)(C)O
4.6 | COc1ccc(COc2ccc(C(=O)N[C@H](C)C(C)(C)C)cn2)cc1F
0.31 | C[C@@H](NC(=O)c1ccc(OCc2cccc(F)c2)nc1)C1CCOCC1
> 10 | COc1nc(OCc2cccc(F)c2)ccc1C(=O)N[C@H](C)C1CCCCC1
> 10 | C[C@H](NC(=O)c1ccc(OCc2cccc(F)c2)nc1Cl)C(C)(C)C
0.3 | O=C(NC(C1CC1)C1CC1)c1ccc(OCc2cccc(F)c2)nc1
0.13 | Cc1cc(OCc2cccc(F)c2)ncc1C(=O)N[C@H](C)C1CCCCC1
0.0066 | C[C@@H](NC(=O)c1ccc(OCc2cccc(F)c2)nc1)C1CCC1
1.9 | C[C@@H](NC(=O)c1cnc(OCc2ccncc2)c(C#N)c1)C1CCCCC1
0.039 | O=C(NC1C2CC3CC(C2)CC1C3)c1ccc(OCc2ccccc2)nc1 (centres unmarked)
0.57 | C[C@@H](NC(=O)c1ccc(OCc2ccncc2)nc1)C(C)(C)C
> 10 | CC(C)(C)CCNC(=O)c1ccc(OCc2cc(F)cc(Br)c2)nc1
> 10 | O=C(NC(c1ccccn1)C(F)(F)F)c1ccc(OCc2cccc(F)c2)nc1 (centres unmarked)
0.68 | Cc1cc(C(=O)Nc2ccc(F)cc2F)cnc1OCc1ccncc1
1.3 | Cc1cc(C(=O)NCCC(C)(C)C)cnc1OCc1cccc(F)c1
3.5 | COc1ccc(F)cc1COc1ccc(C(=O)N[C@H](C)C(C)(C)C)cn1
> 10 | CC1(CCNC(=O)c2ccc(OCc3cccc(F)c3)nc2)COC1
0.49 | Cc1cc(C(=O)N[C@H](C)C2CCCCC2)cnc1OCc1cccc(F)c1
> 10 | C[C@H](CN1CCC(C(F)(F)F)CC1)NC(=O)c1ccc(OCc2cccc(F)c2)nc1
1.8 | O=C(NC1CC(O)(C(F)(F)F)C1)c1ccc(OCc2cccc(F)c2)nc1 (centres unmarked)
> 10 | Cc1cc(C(=O)Nc2ccc(F)cc2F)cnc1OCc1cccc(F)c1
> 10 | CC(C)(C)CCNC(=O)c1cnc(OCc2ccncc2)c(C#N)c1
0.92 | Cc1cc(OCc2cccc(F)c2)ncc1C(=O)Nc1ccc(F)cc1F
0.18 | O=C(NC12CC3CC(CC(C3)C1)C2)c1ccc(OCc2ccccc2)nc1
